The test system of data set [1] is TSLP-induced TARC release from PBMCs. Briefly: Assay 4: TSLP-induced TARC assay in human PBMC. Type of data set: cell-based. As to conditions: 10 ng/mL TSLP, 48 hours, read-out: pIC50 for inhibition of TSLP induced TARC (converted). The text has this: Assay 4: In Vitro TSLP-Induced TARC Assay in Human PBMC
The binding of TSLP to its receptor induces a conformational change that activates JAK1 and JAK2 to phosphorylate various transcription factors including STAT3 and STAT5. In skin-resident immune cells, this triggers a cascade of intracellular events that result in cell proliferation, anti-apoptosis, dendritic cell migration, and production of Th2 cytokines and chemokines. During the acute phase of atopic dermatitis, the skin is invaded by Th2 lymphocytes. In primary peripheral blood mononuclear cells (PBMCs), TSLP has a pro-inflammatory effect by activating myeloid dendritic cells to attract and stimulate T cells. This process is mediated by thymus and activation-regulated chemokine (TARC/CCL17). […]
In this assay, it was shown that TSLP stimulation induces TARC release from PBMCs, and that this response is attenuated in a dose-dependent manner upon treatment with compound (I). […] After 48 hours, the cell supernatants were collected, and TARC was measured using Human CCL17/TARC Quantikine ELISA Kit.
For dose-response analysis, percent inhibition data were plotted vs. compound concentrations, and IC50 values were determined from a 4-parameter robust fit model with the GraphPad Prism software. Results may also be expressed as the negative logarithm of the IC50 value, pIC50.

Data set [2] in a line: Assay 7: epidermal and dermal deposition in freshly excised human skin. Type of data set: in vitro ADME. As to conditions: 0.5% ointment, about 40 hours continuous exposure. Here is the method:
Assay 7: Ex Vivo JAK Pharmacodynamic (PD) Assay Using Human Freshly Excised Skin An ex vivo JAK pharmacodynamics (PD) assay was conducted using human isolated skin tissue. The PD assay used fresh human skin (dermatome of 750 μm thickness) that was mounted in static Franz cells with a surface area of ˜0.5 cm^2. The receiver chambers of the Franz cells were filled with warm (37° C.) cornification media and placed in an incubator at 37° C. The skin was topically dosed with 10 μL ([…]) of compound (I) or vehicle and was left undisturbed overnight (˜24 hours). The next day, with no re-application of the test compound or vehicle, the media was replaced with a Th1-skewed stimulation cocktail consisting of TNFα, IFNγ and IL-12. The skin was left undisturbed for an additional 16 hours, and then harvested and processed for RNA extraction and qPCR of biomarkers: CXCL10, CCL2. GAPDH was used as an internal standard. The compound (I) was formulated in an ointment formulation at 0.5% strength. A total of three skin donors (tested in quadruplicates/sample/treatment) were used. Treatment effect was calculated as the percent increase or decrease in stimulation compared to the vehicle group. [table]

For data set [3], the system named is IL-22 stimulated STAT3 phosphorylation in normal human epidermal keratinocytes. Briefly: Assay 14: inhibition of IL-22 stimulated pSTAT3 in normal human epidermal keratinocytes. Type of data set: cell-based. The following applies: Keratinocyte, read-out: pIC50 for inhibition of IL-22 induced STAT3 phosphorylation (converted). Here is the method:
Assay 14: Inhibition of IL-22 Stimulated pSTAT3 in Normal Human Epidermal Keratinocytes
The potency of test compounds for inhibition of interleukin-22 (IL-22) stimulated STAT3 phosphorylation was measured in the normal human epidermal keratinocytes (ATCC) using AlphaLisa. Phosphorylated STAT3 was measured via the AlphaLISA SureFire Ultra pSTAT3 (Tyr705) kit (PerkinElmer).
Primary epidermal keratinocytes were cultured in a 37° C., 5% CO2 humidified incubator in dermal cell basal medium (ATCC) supplemented with keratinocyte growth kit (ATCC) and 1× Pen/Strep (Life Technologies). […]
After cytokine stimulation, cells were lysed with 5 ul of 5× AlphaLisa Lysis Buffer (PerkinElmer) containing 1× PhosStop and Complete tablets (Roche). […] Phosphorylated STAT3 was measured via the pSTAT3 AlphaLisa kit (PerkinElmer). […] Luminescence was measured with excitation at 689 nm and emission at […] using an EnVision plate reader (PerkinElmer) under green filtered <100 lux light.
Luminescence signals were recorded and utilized to calculate the percent inhibition values based on DMSO and controls. For dose-response analysis, percent inhibition data were plotted vs. compound concentrations, and IC50 values were determined from a 4-parameter robust fit model with the Prism software.

As to `CCS(=O)(=O)N1[C@@H]2CCC[C@H]1C[C@H](N(C)c1nc(CO)c(F)c(Nc3cc(C)[nH]n3)n1)C2` [Compound (I), (2-(((1R,3s,5S)-9-(ethylsulfonyl)-9-azabicyclo[3.3.1]nonan-3-yl)(methyl)amino)-5-fluoro-6-((5-methyl-1H-pyrazol-3-yl)amino)pyrimidin-4-yl)methanol], the IC50 in data set [1] was 15.8 nM. For the same compound, in data set [2], the “PK-Tissue concentration (μM, mean ± SD) Dermis” value was 6.1 ± 5.3 µM and the “PK-Tissue concentration (μM, mean ± SD) Epidermis” value was 116.5 ± 91.9 µM. Further, the IC50 in data set [3] was 3.98 nM.

For the origin of these results see patent US10774080B2, “Pyrimidine compound as JAK kinase inhibitor” (THERAVANCE BIOPHARMA R&D IP, LLC, priority 2017, dated 2020).
